In ChEMBL document CHEMBL5154747, “Discovery of new carbonic anhydrase IX inhibitors as anticancer agents by toning the hydrophobic and hydrophilic rims of the active site to encounter the dual-tail approach” (Eur J Med Chem, 2022):

Key:
Carbonic anhydrase 9 = Carbonic anhydrase 9 (Homo sapiens, UniProt Q16790); assay: Inhibition of recombinant human CA 9 preincubated for 15 mins by phenol red dye based stopped flow CO2 hydration assay
CCRF-CEM = assay: Anticancer activity against human CCRF-CEM cells assessed as cell growth inhibition at 10 uM incubated for 48 hrs by SRB assay relative to control; assay type: functional; settings: read-out: GI
SR = assay: Anticancer activity against human SR cells assessed as cell growth inhibition at 10 uM incubated for 48 hrs by SRB assay relative to control; assay type: functional; settings: read-out: GI
NCI-H226 = assay: Anticancer activity against human NCI-H226 cells assessed as cell growth inhibition at 10 uM incubated for 48 hrs by SRB assay relative to control; assay type: functional; settings: read-out: GI
NCI-H460 = assay: Anticancer activity against human NCI-H460 cells assessed as cell growth inhibition at 10 uM incubated for 48 hrs by SRB assay relative to control; assay type: functional; settings: read-out: GI
HCC 2998 = assay: Anticancer activity against human HCC 2998 cells assessed as cell growth inhibition at 10 uM incubated for 48 hrs by SRB assay relative to control; assay type: functional; settings: read-out: GI
HCT-116 = assay: Anticancer activity against human HCT-116 cells assessed as cell growth inhibition at 10 uM incubated for 48 hrs by SRB assay relative to control; assay type: functional; settings: read-out: GI
HCT-15 = assay: Anticancer activity against human HCT-15 cells assessed as cell growth inhibition at 10 uM incubated for 48 hrs by SRB assay relative to control; assay type: functional; settings: read-out: GI
HT-29 = assay: Anticancer activity against human HT-29 cells assessed as cell growth inhibition at 10 uM incubated for 48 hrs by SRB assay relative to control; assay type: functional; settings: read-out: GI
SF-539 = assay: Anticancer activity against human SF-539 cells assessed as cell growth inhibition at 10 uM incubated for 48 hrs by SRB assay relative to control; assay type: functional; settings: read-out: GI
U-251 = assay: Anticancer activity against human U-251 cells assessed as cell growth inhibition at 10 uM incubated for 48 hrs by SRB assay relative to control; assay type: functional; settings: read-out: GI
LOX IMVI = assay: Anticancer activity against human LOX IMVI cells assessed as cell growth inhibition at 10 uM incubated for 48 hrs by SRB assay relative to control; assay type: functional; settings: read-out: GI
UACC-62 = assay: Anticancer activity against human UACC-62 cells assessed as cell growth inhibition at 10 uM incubated for 48 hrs by SRB assay relative to control; assay type: functional; settings: read-out: GI
OVCAR-5 = assay: Anticancer activity against human OVCAR-5 cells assessed as cell growth inhibition at 10 uM incubated for 48 hrs by SRB assay relative to control; assay type: functional; settings: read-out: GI
ACHN = assay: Anticancer activity against human ACHN cells assessed as cell growth inhibition at 10 uM incubated for 48 hrs by SRB assay relative to control; assay type: functional; settings: read-out: GI
SN12C = assay: Anticancer activity against human SN12C cells assessed as cell growth inhibition at 10 uM incubated for 48 hrs by SRB assay relative to control; assay type: functional; settings: read-out: GI
TK-10 = assay: Anticancer activity against human TK-10 cells assessed as cell growth inhibition at 10 uM incubated for 48 hrs by SRB assay relative to control; assay type: functional; settings: read-out: GI
UO-31 = assay: Anticancer activity against human UO-31 cells assessed as cell growth inhibition at 10 uM incubated for 48 hrs by SRB assay relative to control; assay type: functional; settings: read-out: GI
PC-3 = assay: Anticancer activity against human PC-3 cells assessed as cell growth inhibition at 10 uM incubated for 48 hrs by SRB assay relative to control; assay type: functional; settings: read-out: GI
DU-145 = assay: Anticancer activity against human DU-145 cells assessed as cell growth inhibition at 10 uM incubated for 48 hrs by SRB assay relative to control; assay type: functional; settings: read-out: GI
MCF7 = assay: Anticancer activity against human MCF7 cells assessed as cell growth inhibition at 10 uM incubated for 48 hrs by SRB assay relative to control; assay type: functional; settings: read-out: GI

With `NS(=O)(=O)c1ccc(Nc2nc(N/N=C/CCc3ccccc3)nc(Nc3ccccc3)n2)cc1` the Ki (Carbonic anhydrase 9) was 28.8 nM, the inhibition of growth at 10 µM (CCRF-CEM) was less than 10% and the inhibition of growth at 10 µM (SR) was less than 10%. For the same compound, the inhibition of growth at 10 µM (NCI-H226) was less than 10%, the inhibition of growth at 10 µM (NCI-H460) was less than 10% and the inhibition of growth at 10 µM (HCC 2998) was less than 10%. It also gave an inhibition of growth at 10 µM (HCT-116) of less than 10%, an inhibition of growth at 10 µM (HCT-15) of less than 10% and an inhibition of growth at 10 µM (HT-29) of less than 10%. For the same compound, the inhibition of growth at 10 µM (SF-539) was less than 10%, the inhibition of growth at 10 µM (U-251) was less than 10% and the inhibition of growth at 10 µM (LOX IMVI) was less than 10%. For the same compound, the inhibition of growth at 10 µM (UACC-62) was less than 10%, the inhibition of growth at 10 µM (OVCAR-5) was less than 10% and the inhibition of growth at 10 µM (ACHN) was less than 10%. The inhibition of growth at 10 µM (SN12C) was less than 10%, the inhibition of growth at 10 µM (TK-10) was less than 10% and the inhibition of growth at 10 µM (UO-31) was less than 10%. The inhibition of growth at 10 µM (PC-3) was less than 10%, the inhibition of growth at 10 µM (DU-145) was less than 10% and the inhibition of growth at 10 µM (MCF7) was less than 10%.

Work on `NS(=O)(=O)c1ccc(Nc2nc(N/N=C/c3cccc4ccccc34)nc(Nc3ccccc3)n2)cc1` yielded a Ki (Carbonic anhydrase 9) of 28.1 nM, an inhibition of growth at 10 µM (CCRF-CEM) of 81% and an inhibition of growth at 10 µM (SR) of 65%. The inhibition of growth at 10 µM (NCI-H226) was 19%, the inhibition of growth at 10 µM (NCI-H460) was 13% and the inhibition of growth at 10 µM (HCC 2998) was 15%. For the same compound, the inhibition of growth at 10 µM (HCT-116) was 45%, the inhibition of growth at 10 µM (HCT-15) was 29% and the inhibition of growth at 10 µM (HT-29) was 36%. It also gave an inhibition of growth at 10 µM (SF-539) of 22%, an inhibition of growth at 10 µM (U-251) of 33% and an inhibition of growth at 10 µM (LOX IMVI) of 44%. The inhibition of growth at 10 µM (UACC-62) was 18%, the inhibition of growth at 10 µM (OVCAR-5) was less than 10% and the inhibition of growth at 10 µM (ACHN) was 18%. For the same compound, the inhibition of growth at 10 µM (SN12C) was 12%, the inhibition of growth at 10 µM (TK-10) was less than 10% and the inhibition of growth at 10 µM (UO-31) was 18%. For the same compound, the inhibition of growth at 10 µM (PC-3) was 44%, the inhibition of growth at 10 µM (DU-145) was 31% and the inhibition of growth at 10 µM (MCF7) was 46%.

`NS(=O)(=O)c1ccc(Nc2nc(N/N=C/C=C/c3ccccc3)nc(Nc3ccccc3)n2)cc1` gave a Ki (Carbonic anhydrase 9) of 233 nM, an inhibition of growth at 10 µM (CCRF-CEM) of 75% and an inhibition of growth at 10 µM (SR) of 85%. The inhibition of growth at 10 µM (NCI-H226) was 41%, the inhibition of growth at 10 µM (NCI-H460) was 93% and the inhibition of growth at 10 µM (HCC 2998) was 61%. The inhibition of growth at 10 µM (HCT-116) was 70%, the inhibition of growth at 10 µM (HCT-15) was 55% and the inhibition of growth at 10 µM (HT-29) was 65%. For the same compound, the inhibition of growth at 10 µM (SF-539) was 60%, the inhibition of growth at 10 µM (U-251) was 48% and the inhibition of growth at 10 µM (LOX IMVI) was 72%. For the same compound, the inhibition of growth at 10 µM (UACC-62) was 33%, the inhibition of growth at 10 µM (OVCAR-5) was less than 10% and the inhibition of growth at 10 µM (ACHN) was 61%. It also gave an inhibition of growth at 10 µM (SN12C) of 51%, an inhibition of growth at 10 µM (TK-10) of 13% and an inhibition of growth at 10 µM (UO-31) of 60%. For the same compound, the inhibition of growth at 10 µM (PC-3) was 52%, the inhibition of growth at 10 µM (DU-145) was 57% and the inhibition of growth at 10 µM (MCF7) was 84%.

For `NS(=O)(=O)c1ccc(Nc2nc(N/N=C/c3ccc(Cl)cc3)nc(Nc3ccccc3)n2)cc1`, the Ki (Carbonic anhydrase 9) was 22.6 nM, the inhibition of growth at 10 µM (CCRF-CEM) was 80% and the inhibition of growth at 10 µM (SR) was 81%. For the same compound, the inhibition of growth at 10 µM (NCI-H226) was 18%, the inhibition of growth at 10 µM (NCI-H460) was 27% and the inhibition of growth at 10 µM (HCC 2998) was 23%. The inhibition of growth at 10 µM (HCT-116) was 55%, the inhibition of growth at 10 µM (HCT-15) was 23% and the inhibition of growth at 10 µM (HT-29) was 65%. The inhibition of growth at 10 µM (SF-539) was 46%, the inhibition of growth at 10 µM (U-251) was 45% and the inhibition of growth at 10 µM (LOX IMVI) was 39%. The inhibition of growth at 10 µM (UACC-62) was 25%, the inhibition of growth at 10 µM (OVCAR-5) was 16% and the inhibition of growth at 10 µM (ACHN) was less than 10%. The inhibition of growth at 10 µM (SN12C) was 18%, the inhibition of growth at 10 µM (TK-10) was less than 10% and the inhibition of growth at 10 µM (UO-31) was 17%. It also gave an inhibition of growth at 10 µM (PC-3) of 48%, an inhibition of growth at 10 µM (DU-145) of 27% and an inhibition of growth at 10 µM (MCF7) of 61%.
